Laboratory results as given in US10456451B2, “Protease-resistant mutants of stromal cell derived factor-1 in the repair of tissue damage” (Mesoblast International Sàrl, priority 2010, dated 2019).
“And” between values parts separate entries of the source, which are not always exact repeats. Equal values may be shown once.

Assays:
Format in all cases: cell-based
[1] = system: Jurkat T-lymphocytic cells; experiment: Jurkat T-lymphocyte migration (chemotaxis) assay; conditions: for EC50 / Jurkat Chemotaxis EC50: Jurkat cells, 3 hours migration; for activity of C-terminal variant relative to SDF-1 and SSDF-1: Jurkat migration, CXCR4 cAMP and CXCR β-arrestin assays; for activity of C-terminal variant relative to SDF-1 and SSDF-1 / activity in Jurkat cell migration assay: result in words
Method: Jurkat cells were labeled with Calcein-AM (1 μM) for 60 minutes at 37° C., washed twice and resuspended in RPMI without phenol red to a final density of 4,000,000 cells/ml. […] Cells were allowed to migrate for 3 hours, and cells in lower wells were washed once with PBS. Fluorescence in lower wells was measured at 485 nm excitation and 535 nm emission wavelengths with a Victor Wallace II plate reader. A standard curve was constructed for each experiment to normalize fluorescence to the number of cells.

CXCR7 = CXCR7 (Homo sapiens, UniProt P25106); experiment: CXCR7 β-arrestin recruitment assay (PathHunter)
Method: PathHunter β-arrestin assays were performed following the instructions of the manufacturer (DiscoveRx). Briefly, PathHunter cell lines stably expressing both a β-arrestin-Enzyme Acceptor of β-galactosidase fusion and one of the chemokine receptors fused with the ProLink donor peptide of […] were employed. Upon CXCR stimulation, β-arrestin is recruited to the receptor for desensitization, bringing the two fragments (the Enzyme Acceptor and the ProLink) of β-galactosidase together. This generates an active β-galactosidase enzyme that can convert a substrate to a chemiluminescent product. Cells were seeded at a density of 5000 cells/well in a 384-well plate and were allowed to adhere overnight. […] After incubation, chemiluminescent signal was generated through addition of 12.5 μl (50% v/v) of PathHunter Detection reagent cocktail (DiscoveRx) followed by a 1-hour incubation at room temperature. Microplates were read with a PerkinElmer ViewLux instrument.

CXCR4 = CXCR4 (Homo sapiens, UniProt P61073); experiment: CXCR4 cAMP receptor activation assay (CHO-K1 cells expressing CXCR4); set-up: host or cells: CHO-K1; conditions: decrease in cAMP by Gαi activation, forskolin at EC80
Method: For the CXCR4 cAMP assay, CHO-K1 cells stably expressing the CXCR4 receptor (DiscoveRx, Fremont, Calif.) were seeded at a density of 10,000 cells/well in a 384-well plate and were allowed to recover overnight. A decrease in cAMP by CXCR4-induced Gαi activation was determined using the DiscoveRx HitHunter cAMP XS+assay following the manufacturer's protocol. […] Chemiluminescence was read with a PerkinElmer ViewLux instrument.

Sequence of CXCR4 (P61073 whole entry): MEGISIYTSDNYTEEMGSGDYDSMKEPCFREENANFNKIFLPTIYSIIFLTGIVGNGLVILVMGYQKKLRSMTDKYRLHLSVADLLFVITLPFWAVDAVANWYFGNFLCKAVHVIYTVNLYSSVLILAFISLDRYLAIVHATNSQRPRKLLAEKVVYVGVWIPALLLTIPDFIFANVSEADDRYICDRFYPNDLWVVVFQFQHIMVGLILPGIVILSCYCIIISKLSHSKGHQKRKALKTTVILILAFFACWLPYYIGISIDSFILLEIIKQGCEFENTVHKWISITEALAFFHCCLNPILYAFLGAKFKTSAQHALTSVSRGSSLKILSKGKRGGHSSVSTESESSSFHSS
Sequence of CXCR7 (P25106 whole entry, the tested form may be a part): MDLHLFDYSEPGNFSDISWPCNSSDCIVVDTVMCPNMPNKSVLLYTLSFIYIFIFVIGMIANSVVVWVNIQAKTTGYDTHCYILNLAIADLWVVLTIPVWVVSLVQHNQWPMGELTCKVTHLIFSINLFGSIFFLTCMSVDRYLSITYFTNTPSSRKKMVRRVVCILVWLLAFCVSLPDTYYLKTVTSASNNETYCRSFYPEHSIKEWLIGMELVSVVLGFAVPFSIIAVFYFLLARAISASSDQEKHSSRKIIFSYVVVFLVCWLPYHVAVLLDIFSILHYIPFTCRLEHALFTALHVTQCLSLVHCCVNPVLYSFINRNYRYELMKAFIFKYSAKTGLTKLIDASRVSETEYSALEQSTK

Row | Substance | EC50 [1] | Jurkat Chemotaxis EC50 [1] | activity in Jurkat cell migration assay [1] | EC50 (CXCR7) [nM] | further results
1 | SDF-1: Unmutated SDF-1α, 68 amino acids, SEQ ID NO:52 [reference compound] | 1.5 nM and 1.8 nM | – | – | – | –
2 | SSDF-1 (+69S): SSDF-1 with an amino acid residue (serine) added to the C-terminal end | 12 nM | – | – | – | EC50 ([1]; listed as SSDF-1(+69S)): 2 nM; activity of C-terminal variant relative to SDF-1 and SSDF-1 [1]: retains significant activity
3 | SSDF-1 (L5D): SDF-1 with Leu→Asp at position 5 and N-terminal serine | – | Inactive | inactive | – | –
4 | SSDF-1 (L5E): SDF-1 with Leu→Glu at position 5 and N-terminal serine | – | Inactive | inactive | – | –
5 | SSDF-1 (L5H): SDF-1 with Leu→His at position 5 and N-terminal serine | – | Inactive | inactive | – | –
6 | SSDF-1 (L5K): SDF-1 with Leu→Lys at position 5 and N-terminal serine | – | Inactive | inactive | – | –
7 | SSDF-1 (L5P): SDF-1 with Leu→Pro at position 5 (SEQ ID NO:66) and N-terminal serine | 120 nM | – | – | 225 | CXCR4 (cAMP) EC50 (CXCR4): Inactive
8 | SSDF-1 (L5T): SDF(L5T) (SEQ ID NO:56) with N-terminal serine | 20 nM | – | – | 8.7 | EC50 (CXCR4): 3.6 nM
9 | SSDF-1 (L5V): SDF(L5V) (SEQ ID NO:60) with N-terminal serine | 36 nM | – | – | 21 | EC50 (CXCR4): 33 nM
10 | SSDF-1 (L5W): SDF-1 with Leu→Trp at position 5 and N-terminal serine | – | Inactive | inactive | – | –
11 | SSDF-1 (S6C): SDF(S6C) (SEQ ID NO:61) with N-terminal serine | 23 nM | – | – | 29 | EC50 (CXCR4): 12 nM
12 | SSDF-1 (S6G): SDF(S6G) (SEQ ID NO:62) with N-terminal serine | 11 nM | – | – | 25 | EC50 (CXCR4): 8.5 nM
13 | SSDF-1 (V3C): SDF(V3C) (SEQ ID NO:55) with N-terminal serine | 15 nM | – | – | 14 | EC50 (CXCR4): 0.6 nM
14 | SSDF-1 (V3D): SDF-1 with Val→Asp at position 3 and N-terminal serine | – | Inactive | inactive | – | –
15 | SSDF-1 (V3G): SDF-1 with Val→Gly at position 3 and N-terminal serine | – | Inactive | inactive | – | –
16 | SSDF-1 (V3H): SDF(V3H) (SEQ ID NO:54) with N-terminal serine | 6.7 nM | – | – | 92 | EC50 (CXCR4): 1 nM
17 | SSDF-1 (V3P): SDF-1 with Val→Pro at position 3 and N-terminal serine | – | Inactive | inactive | – | –
18 | SSDF-1 (−68K): SDF-1 lacking the C-terminal lysine, with N-terminal serine | 2.2 nM | – | – | – | EC50 ([1]; listed as SSDF-1(−68K)): 1.3 nM; activity of C-terminal variant relative to SDF-1 and SSDF-1 [1]: unchanged
19 | SSDF-1(S4V)(−68K): SSDF-1(S4V) lacking the C-terminal lysine | 10 nM | – | – | – | –
20 | SSDF-1(S4V)-RADI: Fusion protein of SSDF-1(S4V) and RAD16-I sequence, six glycine linker (SEQ ID NO:75) | 18 nM | – | – | – | –
21 | SSDF-1(S4V)γ: SDF-1γ version of SSDF-1(S4V) | 47 nM | – | – | – | –
